From article PMC10451377, “Rationally Designed Pyrimidine Compounds: Promising Novel Antibiotics for the Treatment of Staphylococcus aureus-Associated Bovine Mastitis” (Antibiotics, 2023)
In brackets after ≈: the same amount, converted by molar mass.

Assays:
[1] = system: S. aureus Newbould (ATCC 29740); assay: Murine mastitis model; settings: two intramammary doses of 500 µg
[2] = system: guanine riboswitch-lacZ fusion construct (xpt-lacZ); assay: Riboswitch regulation assay (lacZ-gene reporter); type: cell-based, B. subtilis; settings: 64 µg/mL
Excerpt: The novel pyrimidine compounds, especially PC206, display specificity and potency against some staphylococci but not the other bacterial genus (Table 1 and Table 2). Because they are structurally derived from PC1 and PC2, these novel antibiotic candidates are expected to have the same mode of action. […] To verify this hypothesis, a strain of B. subtilis with a guanine riboswitch-lacZ fusion construct (named xpt-lacZ) integrated in its chromosome was exposed to these new antimicrobials. […] Therefore, it is an adequate reporter species. The metabolization of substrate ONPG into colored ONP was normalized by the bacterial suspension absorbance at 600 nm (Miller units) and relativized to the untreated condition.
β-galactosidase gene expression in the presence of the new pyrimidine analogs was studied, using an xpt-lacZ transcriptional fusion construct integrated in the genome of B. subtilis as previously described. Briefly, cultures were grown for 5 h at 35 °C in CAMHB, from an initial optical density of 0.05 at 600 nm (OD600), and then diluted 1:20 and in the presence of different concentrations of the compounds tested. Cultures were centrifuged for 10 min at 13,100 rpm, the supernatant was discarded, and pellets were suspended in a Z-buffer (NaH2PO4 40 mM, Na2HPO4 60 mM, MgSO4 1 mM, KCl 10 mM). Cultures OD600 were measured, and bacteria were then lysed with lysozyme (1 mg/mL) and β-mercaptoethanol 50 mM for 30 min. Lysates were centrifuged for 10 min at 13,100 rpm, and supernatants were incubated for 5 min at 30 °C with the substrate orthonitrophenyl-β-galactoside (ONPG; Sigma Aldrich). Reactions were stopped with Na2CO3 1M, supernatants OD420 were measured, and Miller units were calculated. A decrease in β-galactosidase activity indicated binding of the test compound to the riboswitch. Guanine and oxacillin were used as […] controls, respectively. The formula to measure Miller units is as follows: Millerunits=1000×OD420/t·v·OD600
Here, t represents the time of incubation with ONPG, and v represents the volume of the reaction.

[3] = system: Enterococcus faecalis ATCC 29212; assay: Broth microdilution MIC; settings: ATCC29212, read-out: Broth Microdilution MIC
[4] = system: all reference staphylococci strains tested, including MRSA; assay: Broth microdilution MIC, summary over reference staphylococci; settings: Staphylococcus aureus, read-out: MIC ranging, against all reference staphylococci strains tested
[5] = Recovery of PC206 from quarter milk after intramammary infusion; type: in vivo; settings: cows
Method: The innocuity of PC206 was evaluated in cows, as previously described for other test substances. Following morning milking, each of the four mammary gland quarters […] was infused with various doses of PC206 (100, 250, 500 mg) or saline as a negative control. […] Cows were milked using an individual quarter-milking unit in order to measure individual quarter-milk production. PC206 concentration in milk was also measured; milk samples were diluted with an equal volume of isopropanol and washed 3 times with hexane. PC206 was extracted using ethyl acetate, filtered on Na2SO4, and evaporated. The dried samples were diluted 80:20 in ACN:H2O containing an internal standard. The content of PC206 was determined using single-ion monitoring (SIMS) on UPLC-MS.

S. haemolitycus = assay: Susceptibility of isolate panel (MIC50, MIC90, range); type: cell-based, S. haemolyticus
Excerpt: (§1) Reference strains for this study (S. aureus ATCC 29213, ATCC 29740 [bovine mastitis strain Newbould], S. epidermidis ATCC 12228, E. coli ATCC 35695, E. faecalis ATCC 29212) were obtained from the American Type Culture Collection (ATCC, Rockville, MD). S. aureus strains CMRSA-10 and CMRSA-2 were obtained from the Laboratoire de santé publique du Québec (LSPQ, Sainte-Anne-de-Bellevue, QC, Canada) and are Canadian CA-MRSA USA-300 and HA-MRSA USA-100 clones, respectively. The strain E. coli imp4213 (lptD), used as a control in MIC assays, is a derivative of E. coli ATCC 35695 (E. coli MC4100) with an increased membrane permeability. […] Other MRSA strains used in this study are clinical isolates of human origin obtained from the microbiology laboratory of the Centre Hospitalier Universitaire de Sherbrooke (CHUS, Sherbrooke, QC, Canada). Bovine mastitis strains (S. aureus, S. chromogenes, S. haemolyticus, S. hominis, S. simulans) were obtained from the Canadian Bovine Mastitis and Milk Quality Research Network (CBRQMN, St-Hyacinthe, QC, Canada). Among these strains, S. aureus 2117 is a high producer of biofilm and was used in the biofilm-eradication assay. S. epidermidis isolates were provided by Centre de Recherche en Infectiologie (CRI) de Québec (Québec, QC, Canada).
(§2) The antibacterial activity of the most promising compound, PC206, was also evaluated against larger groups of clinical isolates of human and animal origin. The MIC50 and MIC90 values represented the concentrations of drug required to inhibit the growth of 50% and 90% of the bacterial strains tested, respectively.

S. epidermidis = assay: as above; type: cell-based; settings: S. epidermidis, 10 isolates
Excerpt: as §1, §2

S. simulans = assay: as above; type: cell-based
Excerpt: as §1, §2

S. chromogenes = assay: as above; type: cell-based
Excerpt: as §1, §2

S. hominis = assay: as above; type: cell-based; settings: S. hominis, 10 isolates
Excerpt: as §1, §2

[6] = system: Escherichia coli ATCC 35695; assay: Broth microdilution MIC; settings: ATCC35695, read-out: Broth Microdilution MIC

Q: Which results are given for `CCCCCCNc1cc(N)nc(N)n1` [PC206]?
A: Tolerability in mice and mammary gland tissues [1]: No inflammation, damage, nor adverse effects were observed; Difference in median bacterial counts versus untreated mice ([1]; 1 and 4 h after infection, glands harvested 14 h post-infection): 1.24 log10 CFU/g of gland; Miller units remaining, relative to the untreated condition [2]: 35%; MIC [3]: 128 µg/mL (≈ 612 µM); MIC [4]: 4 to 8 µg/mL (≈ 19.1 to 38.2 µM); Time the concentration in quarter milk remained above the MIC (8 µg/mL) ([5]; single intramammary infusion of 100 mg): over 2 h; Time the concentration in quarter milk remained above the MIC (8 µg/mL) ([5]; single intramammary infusion of 250 mg): > 4 h; Time the concentration in quarter milk remained above the MIC (8 µg/mL) ([5]; single intramammary infusion of 500 mg): about 8 h; MIC Range (S. haemolitycus; S. haemolitycus, 10 isolates): 4 to 128 µg/mL; MIC90 (S. haemolitycus; Staphylococcus haemolyticus): 128 µg/mL (≈ 612 µM); MIC50 (S. haemolitycus; Staphylococcus haemolyticus, S. haemolitycus, 10 isolates, read-out: MIC50): 64 µg/mL (≈ 306 µM); MIC Range (S. epidermidis): 2 to 16 µg/mL; MIC50 (S. epidermidis; Staphylococcus epidermidis, read-out: MIC50): 4 µg/mL (≈ 19.1 µM); MIC90 (S. epidermidis; Staphylococcus epidermidis, read-out: MIC90): 8 µg/mL (≈ 38.2 µM); MIC Range (S. simulans; S. simulans, 5 isolates): 64 to 128 µg/mL; MIC90 (S. simulans; Staphylococcus simulans): 128 µg/mL (≈ 612 µM); MIC50 (S. simulans; Staphylococcus simulans, S. simulans, 5 isolates, read-out: MIC50): 64 µg/mL (≈ 306 µM); MIC90 (S. chromogenes): 128 µg/mL (≈ 612 µM); MIC Range (S. chromogenes; S. chromogenes, 5 isolates): 16 to 128 µg/mL; MIC50 (S. chromogenes; S. chromogenes, 5 isolates, read-out: MIC50): 32 µg/mL (≈ 153 µM); MIC Range (S. hominis): 1 to 32 µg/mL; MIC50 (S. hominis; Staphylococcus hominis, read-out: MIC50): 8 µg/mL (≈ 38.2 µM); MIC90 (S. hominis; Staphylococcus hominis, read-out: MIC90): 32 µg/mL (≈ 153 µM); MIC [6]: > 128 µg/mL
